For this assay, the system named is human adipose tissue derived mesenchymal stem cells (hAT-MSCs). The assay can be described thus: Adipocyte differentiation promoting effect: adiponectin expression (ELISA) in differentiating mesenchymal stem cells. The format is cell-based. On the set-up: Adiponectin (pg/ml, Avg ± S.D.): unit of the concentration uncertain. The settings on record: for Adiponectin (pg/ml, Avg ± S.D.): medium collected on 14th day, ELISA; for expression level of adiponectin (in words): IDX differentiation medium + material, 14th day, summary of Table 1. How it is done:
In order to examine the adipocyte differentiation promoting effect of the compounds prepared in the Example, the following test was carried out.
Adiponectin is a typical protein hormone secreted from adipocytes. It has been reported that as adipocytes are differentiated, the expression of adiponectin is increased. Therefore, the adipocyte differentiation promoting effect was confirmed by measuring the amount of adiponectin expressed in the cell culture medium when treated with the novel compound of the present invention, which is an indicator of adipocyte differentiation promoting.
The adipocyte differentiation was performed by culturing human adipose tissue derived mesenchymal stem cells (hAT-MSCs) from Lonza Inc. (Walkersville, Md., USA) according to Lonza's guidelines. The adipocyte differentiation was carried out using the method recommended by Lonza Inc., except that the adipocyte differentiation of adipose-derived mesenchymal stem cells is induced by using troglitazone (TRO) instead of indomethacin. Specifically, the mesenchymal stem cells were differentiated into adipocytes by adding the medium for adipocyte differentiation (hereinafter referred to as IDX), which was prepared by mixing […] of insulin, […] of Dexamethasone (DEXA), 0.5 mM of isobutylmethylxanthine (IBMX) and […] of TRO, to the culture medium of mesenchymal stem cells, and then culturing it.
In order to determine the expression level of adiponectin, after the medium for adipocyte differentiation was collected on the 14th day of differentiation, the amount of adiponectin was quantified using the Adiponectin ELISA Kit (R & D systems, Cat. No. DY1065) (each data value was corrected by the control group). The specific measurement method using Adiponectin ELISA Kit was as follows.
First, the capture antibody was reacted in a 96-well plate, washed with washing buffer solution, and then the material shown in Table 1 below was added and reacted at room temperature for 2 hours. Thereafter, while washing three times every time when going through each step, the detection antibody, the HRP enzyme, the substrate solution, and the stop solution were added in order and reacted for the time indicated in the protocol. After the final reaction, the absorbance was measured at a wavelength of 450 nm using a spectrophotometer.
(In general: In an ELISA, binding on a coated surface is turned into a signal by an enzyme label.)

Where [1] appears, read: IDX differentiation medium + material at 60 (unit uncertain).

As for `O=c1cc(CO)occ1O` [Kojic acid], the “expression level of adiponectin (in words)” value is listed as “not increased”. In addition, the “Adiponectin (pg/ml, Avg ± S.D.)” value (IDX differentiation medium + material at 400 (unit uncertain)) stood at 303 ± 98 pg/mL.

As to `CC1=CCCC(C)(C)C1/C=C/C(=O)OCc1cc(=O)c(O)co1` (stereo not drawn) [compound of example (Formula 1), 3-(2,6,6-trimethyl-cyclohex-2-enyl)-propenoic acid 5-hydroxy-4-oxo-4H-pyran-2-ylmethyl ester], the “expression level of adiponectin (in words)” value is “increases almost similarly to that with Glibenclamide”. In addition, the “Adiponectin (pg/ml, Avg ± S.D.)” value under setting [1] was 1730 ± 120 pg/mL.

For the compound `COc1ccc(Cl)cc1C(=O)NCCc1ccc(S(=O)(=O)NC(=O)NC2CCCCC2)cc1` [Glibenclamide], where the note is “IDX differentiation medium + material (concentration not given)”, the “Adiponectin (pg/ml, Avg ± S.D.)” value worked out at 1920 ± 100 pg/mL.

Regarding `O=C(/C=C/c1ccc2c(c1)OCO2)OCc1cc(=O)c(O)co1` [Seletinoid G], under setting [1], the “Adiponectin (pg/ml, Avg ± S.D.)” value worked out at 1505 ± 109 pg/mL.

These data come from patent publication US10208009B2, “Hydroxyl pyranone compound, method for producing same, and cosmetics composition comprising compound” (AMOREPACIFIC CORPORATION, priority 2015, dated 2019).
